The results in this text go back to patent publication US12186400B2, “Micromolecular compound specifically degrading tau protein, and application thereof” (Shanghai Qiangrui Biotech Co., Ltd., priority 2018, dated 2025).

Experiment [1] concerns the target T1, tau protein (Homo sapiens, UniProt P10636).
T1 construct: HEK293 tau cells (stably expressing wild type full length tau protein); expressed in transfected cells
As to the kind of experiment: Fluorescence photograph of total tau protein content in HEK293 tau cells. It is filed as cell-based. The settings on record: different concentrations.

Experiment [2] addresses T1, tau protein. In words: Immunoblot of total tau protein (tau5 antibody) in HEK293 tau cells after 24 h treatment. As to conditions: HEK293 tau cells stably expressing wild type full length tau, effect at 1 μM, 10 μM and 20 μM (tested 0, 0.01, 0.1, 1, 10, 20 μM). The class given is cell-based. Here is the method:
HEK293 tau cells (stably expressing wild type full length tau protein) is subjected to cell culture and pharmaceutical treatment, and after the HEK293 tau cells were cultured in DMEM medium for 24 hours, the micromolecular compounds prepared in the above example with various concentrations (0 μM, 0.01 μM, 0.1 μM, 1 μM, 10 μM, 20 μM) were added, the cells were further cultured for 24 hours. The cells were lysed with RIPA liquid and the cell extraction solution was collected, the proteins in the cell extraction solution were separated with 10% polyacrylamide gel electrophoresis (PAGE), and subsequently immunoblotted with anti-total tau protein antibody (tau5), and the tau protein content was quantitatively analyzed. The detailed operation procedures for preparation of samples, measurement of protein content in the samples, and the immunoblotting process were performed with reference to the following content.
(1) The growth condition and density of cells in the cell culture plates were observed under a microscope;
(2) PBS and cell culture plate were precooled on ice, a mixed liquor consisting of 1× buffer solution+PMSF (1:100)+protease inhibitor cocktail (1:1000) was prepared; 80 μl of the mixed liquor was added into each pore of the 6-well plate, and 150 μl of the mixed liquor was added into a culture dish with a diameter of 6 cm; […]

T1 sequence (P10636 1-441 isoform P10636-8): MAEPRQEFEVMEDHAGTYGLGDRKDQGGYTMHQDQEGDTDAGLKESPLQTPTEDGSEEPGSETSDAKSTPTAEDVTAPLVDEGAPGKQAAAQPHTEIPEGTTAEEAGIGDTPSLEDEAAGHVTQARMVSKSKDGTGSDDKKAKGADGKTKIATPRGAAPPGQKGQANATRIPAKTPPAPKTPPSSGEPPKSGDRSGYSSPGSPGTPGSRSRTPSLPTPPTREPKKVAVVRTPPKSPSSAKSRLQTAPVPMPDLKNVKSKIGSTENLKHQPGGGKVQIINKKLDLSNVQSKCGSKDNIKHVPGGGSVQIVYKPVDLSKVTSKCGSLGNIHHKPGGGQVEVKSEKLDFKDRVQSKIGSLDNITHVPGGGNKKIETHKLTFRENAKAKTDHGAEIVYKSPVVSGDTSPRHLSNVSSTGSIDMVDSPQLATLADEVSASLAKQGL

As for `CC(=O)N1CCCN(c2nc(NCCc3cccs3)nc(N(C)CC(=O)NCCOCCOCCOCC(=O)N[C@H](C(=O)N3C[C@H](O)C[C@H]3C(=O)NCc3ccc(-c4scnc4C)cc3)C(C)(C)C)n2)CC1` [Compound 4], the “total tau protein content in the HEK293 tau cells (fluorescence photograph, FIG. 4)” value on tau protein [1] is “reducing total tau protein content in the HEK293 tau cells”. Moreover, at tau protein [2], the “content of tau protein in cells (immunoblot, quantitative analysis, FIG. 2 and FIG. 3)” value is listed as “dose-dependently reduce the content of tau protein in cells”.
